# ChEMBL document CHEMBL1142579, “Antineoplastic agents. 527. Synthesis of 7-deoxynarcistatin, 7-deoxy-trans-dihydronarcistatin, and trans-dihydronarcistatin 1(1)” (J Nat Prod, 2005)
# Experiments:
# MCF7 = test: Cytotoxicity against human MCF7 cells; type: functional
# SF-268 = test: Cytotoxicity against human SF-268 cells; type: functional
# KM-20L2 = test: Cytotoxicity against human KM20L2 cells; type: functional
# NCI-H460 = test: Cytotoxicity against human NCI-H460 cells; type: functional
# BXPC-3 = test: Cytotoxicity against human […] cells; type: functional
# [1] = Aqueous solubility at 25 degC; type: physicochemical; conditions: water
# DU-145 = test: Cytotoxicity against human DU145 cells; type: functional
# P388 = test: Cytotoxicity against mouse P388 cells; type: functional; conditions: read-out: ED50 (the source's name)
solubility [1] [µg/mL],SMILES,GI50 (MCF7) [µg/mL],GI50 (SF-268) [µg/mL],GI50 (KM-20L2) [µg/mL],GI50 (NCI-H460) [µg/mL],GI50 (BXPC-3) [µg/mL],GI50 (DU-145) [µg/mL],EC50 (P388) [µg/mL]
> 10000,O=C1N[C@H]2[C@@H]3OP(=O)([O-])O[C@@H]3[C@@H](O)C[C@@H]2c2cc3c(c(O)c21)OCO3.[Na+],4.6,8.8,9.6,7.8,5.6,5.2,0.88
> 5000,O=C1N[C@H]2[C@@H]3OP(=O)([O-])O[C@@H]3[C@@H](O)C[C@@H]2c2cc3c(cc21)OCO3.[K+],> 1,> 1,> 1,> 1,> 1,> 1,1.7
> 10000,O=C1N[C@H]2[C@@H]3OP(=O)([O-])O[C@@H]3[C@@H](O)C[C@@H]2c2cc3c(cc21)OCO3.[Na+],7.2,> 10,> 10,> 10,> 10,> 10,1.6
> 5000,O=C1N[C@H]2[C@@H]3OP(=O)([O-])O[C@@H]3[C@@H](O)C[C@@H]2c2cc3c(cc21)OCO3.[Li+],> 1,> 1,> 1,> 1,> 1,> 1,0.39

# Second part, the compound before the results:
SMILES,solubility [1] [µg/mL],GI50 (MCF7) [µg/mL],GI50 (SF-268) [µg/mL],GI50 (KM-20L2) [µg/mL],GI50 (NCI-H460) [µg/mL],GI50 (BXPC-3) [µg/mL],GI50 (DU-145) [µg/mL],EC50 (P388) [µg/mL]
O=C1N[C@H]2[C@H](O)[C@H](O)[C@@H](O)C[C@@H]2c2cc3c(cc21)OCO3,< 1000,0.034,0.059,0.051,0.043,0.046,0.04,0.029
O=C1N[C@H]2[C@H](O)[C@H](O)[C@@H](O)C[C@@H]2c2cc3c(c(O)c21)OCO3,< 1000,0.0053,0.02,0.015,0.0092,0.012,0.0066,0.0024
O=C1N[C@@H]2C(=C[C@H](O)[C@@H](O)[C@H]2O)c2cc3c(cc21)OCO3,< 1000,0.046,0.12,0.084,0.053,0.07,0.051,0.019
O=C1N[C@@H]2C(=C[C@H](O)[C@H]3OP(=O)([O-])O[C@H]32)c2cc3c(cc21)OCO3.[Na+],> 190000,4,6.3,5.6,4.7,5.3,3.9,1.7
O=C1N[C@@H]2C(=C[C@H](O)[C@H]3OP(=O)([O-])O[C@H]32)c2cc3c(cc21)OCO3.[Li+],> 10000,> 1,> 1,> 1,> 1,> 1,> 1,0.42
O=C1N[C@H]2[C@@H]3OP(=O)([O-])O[C@@H]3[C@@H](O)C[C@@H]2c2cc3c(c(O)c21)OCO3.[K+],> 1000,0.64,> 1,> 1,> 1,> 1,0.54,0.35
O=C1N[C@H]2[C@@H]3OP(=O)([O-])O[C@@H]3[C@@H](O)C[C@@H]2c2cc3c(c(O)c21)OCO3.[Li+],> 1000,> 1,> 1,> 1,> 1,> 1,> 1,0.26
O=C1N[C@@H]2C(=C[C@H](O)[C@H]3OP(=O)([O-])O[C@H]32)c2cc3c(cc21)OCO3.[K+],> 10000,> 1,> 1,> 1,> 1,> 1,> 1,1.4
